Source: article PMC8615111, “Phenolic Thiazoles with Antioxidant and Antiradical Activity. Synthesis, In Vitro Evaluation, Toxicity, Electrochemical Behavior, Quantum Studies and Antimicrobial Screening” (Antioxidants, 2021)
Read-outs that look alike come from different tables or passages of the source. Marks after values point to notes of the source that are not given here.

Key:
[1] = Scavenging of hydrogen peroxide by cyclic voltammetry on Au SPE; settings: 0.5 mM H2O2, 0.5 mM compound, 0.1 M KCl
Method: The antioxidant properties were evaluated in terms of their activity against some free radicals, and other compounds reported in the literature, relevant for this purpose, such as: • ferric ions (Fe^3+)—used to test the reduction of the antioxidant character of the compounds; • DPPH˙ free radical– used to test the scavenging effect of the compounds on this radical; • hydrogen peroxide (H2O2)—used to test the scavenging effect of the synthesized molecules on this compound; • 2,2,6,6-tetramethylpiperidinyl-1-oxy (TEMPO)—used to test the scavenging effect of the synthesized molecules on this compound.
The anodic oxidation of H2O2 was used to determine the antioxidant character of compounds in different samples. Gold-based SPEs purchased from Dropsens were used as working electrode for monitoring the change in the oxidation peak of hydrogen peroxide due to the addition of different amounts of the novel compounds. The oxidation signal of H2O2 obtained at the sweep of the potential in the range from −0.5 to 1.2 V on the gold electrode can be observed in Figure A6. The scavenging abilities of compounds from 1 to 8 on […] are compared in this figure. The addition of an antioxidant, by its ability to consume H2O2, determines the decrease of anodic peak characteristic for H2O2. […]

[2] = parameters: method as in doi:10.1016/j.molstruc.2021.131278; settings: cited from earlier work
[3] = parameters: method as in doi:10.1016/j.molstruc.2021.131278; settings: cited from earlier work; remark: listed apart in the source
[4] = parameters: method as in doi:10.1016/j.molstruc.2021.131278; settings: cited from earlier work; remark: listed apart in the source

Row | SMILES | scavenging effect on H2O2 [1] | % of ABTS˙^+ Scavenged ([2]; 0.5 µg/mL) | % of ABTS˙^+ Scavenged ([2]; 0.75 µg/mL) | % of ABTS˙^+ Scavenged ([2]; 1 µg/mL) | % of ABTS˙^+ Scavenged ([2]; 1.5 µg/mL) | % of ABTS˙^+ Scavenged ([2]; 2.5 µg/mL) | IC50 ([2]; ABTS˙^+ scavenging) | % of DPPH˙ Scavenged ([3]; 1 µg/mL) | % of DPPH˙ Scavenged ([3]; 1.5 µg/mL) | % of DPPH˙ Scavenged ([3]; 2 µg/mL) | % of DPPH˙ Scavenged ([3]; 3 µg/mL) | % of DPPH˙ Scavenged ([3]; 5 µg/mL) | IC50 ([3]; DPPH˙ scavenging) | Chelation Capacity (%), ferrous ions ([4]; 50 µg/mL) | Chelation Capacity (%), ferrous ions ([4]; 100 µg/mL)
1 | C/C(=N\Nc1nc(-c2ccc(O)c(O)c2)cs1)c1ccc(O)cc1O.Cl [Compound 8a, (E)-2-(1-(2,4-dihydroxyphenyl)ethylidene)-1-(4-(3,4-dihydroxyphenyl)thiazol-2-yl)hydrazin-1-ium chloride] | highest scavenging effect |  |  |  |  |  |  |  |  |  |  |  |  |  | 
2 | C/C(=N\Nc1nc(C)cs1)c1ccc(O)cc1O [Compound 5a, Dihydroxy-Phenyl-Thiazol-Hydrazinium chloride] |  | 32.42 * % | 37.23 * % | 41.36 * % | 49.77 * % | 70.60 * % | 1.45 * µg/mL | 13.11 * % | 20.68 * % | 28.87 * % | 48.22 * % | 79.92 * % | 3.20 * µg/mL | 0.27 * % | 5.06 * %
